In patent publication US20220281886A1, “NATRIURETIC PEPTIDE RECEPTOR A AGONISTS USEFUL FOR THE TREATMENT OF CARDIOMETABOLIC DISEASES, KIDNEY DISEASE AND DIABETES” (Merck Sharp & Dohme Corp., priority 2019, published 2022) one finds EC50 data, which are given here for 13 compounds.

The target in this assay is T1, hNPRA (Homo sapiens, UniProt P16066).
T1 construct: expressed in transfected cells
T1 sequence (P16066 33-1061): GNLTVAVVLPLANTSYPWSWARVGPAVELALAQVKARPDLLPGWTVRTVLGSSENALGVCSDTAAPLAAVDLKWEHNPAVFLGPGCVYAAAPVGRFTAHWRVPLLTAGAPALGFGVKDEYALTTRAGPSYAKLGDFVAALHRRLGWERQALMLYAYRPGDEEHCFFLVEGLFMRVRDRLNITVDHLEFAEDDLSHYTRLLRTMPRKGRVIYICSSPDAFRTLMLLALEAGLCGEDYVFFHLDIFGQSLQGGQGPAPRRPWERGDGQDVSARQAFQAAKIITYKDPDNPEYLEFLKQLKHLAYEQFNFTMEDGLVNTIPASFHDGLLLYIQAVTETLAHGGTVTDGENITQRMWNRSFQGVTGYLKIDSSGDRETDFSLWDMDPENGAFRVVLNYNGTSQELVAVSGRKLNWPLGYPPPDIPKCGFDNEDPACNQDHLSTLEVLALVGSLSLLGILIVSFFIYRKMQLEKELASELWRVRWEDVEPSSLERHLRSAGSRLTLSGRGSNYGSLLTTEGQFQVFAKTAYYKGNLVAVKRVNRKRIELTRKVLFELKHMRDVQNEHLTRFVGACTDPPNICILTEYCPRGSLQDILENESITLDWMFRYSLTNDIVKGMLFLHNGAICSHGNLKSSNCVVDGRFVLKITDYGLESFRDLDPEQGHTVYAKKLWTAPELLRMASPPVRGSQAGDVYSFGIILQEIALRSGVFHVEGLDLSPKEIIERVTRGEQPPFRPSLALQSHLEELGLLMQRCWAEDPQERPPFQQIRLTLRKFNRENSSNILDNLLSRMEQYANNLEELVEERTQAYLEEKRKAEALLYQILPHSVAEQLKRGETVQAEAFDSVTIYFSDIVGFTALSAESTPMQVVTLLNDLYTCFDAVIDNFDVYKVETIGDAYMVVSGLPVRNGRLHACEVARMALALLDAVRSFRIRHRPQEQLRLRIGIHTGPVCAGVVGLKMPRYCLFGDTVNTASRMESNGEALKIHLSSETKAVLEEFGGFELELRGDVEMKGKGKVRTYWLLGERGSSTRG
As to the kind of experiment: NPRA Functional Cell Assay (cGMP HTRF). It counts as cell-based. Particulars: Human NPRA HEK JumpIn stable cells; cGMP by HTRF after 1 hour at 37° C.; 10-point dose response. From the text:
Assay Buffer components HEPES and Opti-MEM® I Reduced-Serum with Glutamine (no phenol red) were from Gibco/Invitrogen (Thermo Fisher Scientific, Waltham, Mass. USA). 3-Isobutyl-1-methylxanthine (IBMX) and 4-(3-Butoxy-4-methoxybenzyl)imidazolidin-2-one (RO20) were obtained from Sigma-Aldrich (St. Louis, Mo., USA). DPBS (Dulbecco's phosphate-buffered saline) without Ca2+ and Mg2+ was purchased from GE Healthcare Bio-Sciences (Pittsburgh, Pa., USA). 384 well white Optiplates were from Perkin Elmer (Atlantic Highlands, N.J., USA). Human ANP (Atrial Natriuretic Peptide) (1-28) was purchased from Sigma-Aldrich (Catalog #A1663) and rat ANP (1-28) from Bachem (Torrance, Calif., USA) (Catalog #H2100). Human-BNP (Human-Brain Natriuretic Peptide) (1-32 AA) was purchased from American Peptide Company (Sunnyvale, Calif., USA) (product No. 14-1-90). cGMP kits were purchased from Cisbio. The assay ready frozen (ARF) Human/rat/dog NPRA HEK JumpIn Stable frozen cells (low passage number 5-11) were prepared in-house.
Test compounds were titrated in DMSO in a 10-point dose response in a separate step followed by a 100-fold dilution into the reaction. Positive response for each assay was determined using 10 nM rat-ANP peptide (rat cells) or 50 nM h-ANP peptide (human and dog cells).
Cells were thawed, washed with DPBS and resuspended in assay buffer (Opti-MEM+Glutamine, phenol red free media, 10 mM HEPES, 100 uM IBMX and 100 uM RO20) that was warmed to 37° C. Cells were then transferred to microplates via a Microplate Combi dispenser at a density of 1500, 400 and 1200 cells/well for human, rat and dog cells respectively, followed by acoustic transfer (Echo) of compound.
Compounds and cells were incubated at 37° C. with 5% CO2 for 1 hour, after which the cells were lysed and cGMP was captured using a CisBio cGMP HTRF assay kit. The TRF signal was measured with an Envision plate reader (emission set to 615 and 665 nm) after 1 hour incubation at ambient temperature. The TRF signal was converted to [cGMP] through the use of a cGMP calibration curve on each microplate. EC50's were generated from the resulting dose response curves by use of a 4 parameter logistic algorithm.
Assay Buffer components HEPES and Opti-MEM® I Reduced-Serum with Glutamine (no phenol red) were from Gibco/Invitrogen. 3-Isobutyl-1-methylxanthine (IBMX) and 4-(3-Butoxy-4-methoxybenzyl)imidazolidin-2-one (RO20) were obtained from Sigma. DPBS (Dulbecco's phosphate-buffered saline) without Ca2+ and Mg2+ was purchased from GE Healthcare Bio-Sciences (Pittsburgh, Pa., USA). 384 well white Optiplates were from Perkin Elmer (Atlantic Highlands, N.J., USA). Human ANP (1-28) was purchased from Sigma (A1663) and rat ANP (1-28) from Bachem (H2100). Human-BNP (1-32 AA) was purchased from American Peptide Company (Sunnyvale, Calif., USA) (product No. 14-1-90). cGMP kits were purchased from Cisbio (Bedford, Mass., USA). The assay ready frozen (ARF) Human/rat/dog NPRA HEK JumpIn Stable frozen cells (low passage number 5-11) were prepared in-house.
Compounds and cells were incubated at 37° C. with 5% CO2 for 1 hour, after which the cells were lysed and cGMP was captured using a CisBio cGMP HTRF assay kit. The TRF signal was measured with an Envision® plate reader (Perkin Elmer)(emission set to 615 and 665 nm) after 1 hour incubation at ambient temperature. The TRF signal was converted to [cGMP] through the use of a cGMP calibration curve on each microplate. EC50's were generated from the resulting dose response curves by use of a 4 parameter logistic algorithm.
hNPRA EC50 (nM) are were determined for the compounds of Example 1 through 273 and are reported in the Experimental section of this application.
Consider `CC(C)[C@]1(F)CCc2nc3c(F)cc(C(=O)N[C@H](CCN4CCC(C(C)(C)O)CC4)c4ccc(-c5ccnnc5)nc4)cc3cc2C1` (racemic) [Example 47, rac-(7S)-4,7-difluoro-7-isopropyl-N-[rac-(1R)-3-[4-(1-hydroxy-1-methyl-ethyl)piperidin-1-ium-1-yl]-1-(6-pyridazin-4-yl-3-pyridyl)propyl]-6,8-dihydro-5H-acridine-2-carboxamide;2,2,2-trifluoroacetate], for which the midpoint of the response, the EC50, lay at 188 nM.

Consider `CC(C)[C@]1(F)CCc2nc3c(F)cc(C(=O)N[C@H](CCN4CCC5(CC[C@H](O)C5)CC4)c4ccc(-c5ccnnc5)nc4)cc3cc2C1` (racemic) [Example 48, rac-(7S)-4,7-difluoro-7-isopropyl-N-[rac-(1R)-1-(6-pyridazin-4-yl-3-pyridyl)-3-[rac-(3S)-3-hydroxy-8-azaspiro[4.5]decan-8-yl]propyl]-6,8-dihydro-5H-acridine-2-carboxamide], for which the half-maximal effective concentration (EC50) turned out to be 105 nM.

In turn, `CC(C)[C@]1(F)CCc2nc3c(F)cc(C(=O)N[C@H](CCN4CCC5(CC[C@@H](O)C5)CC4)c4ccc(-c5ccnnc5)nc4)cc3cc2C1` (racemic) [Example 49, rac-(7S)-4,7-difluoro-7-isopropyl-N-[rac-(1R)-1-(6-pyridazin-4-yl-3-pyridyl)-3-[rac-(3R)-3-hydroxy-8-azaspiro[4.5]decan-8-yl]propyl]-6,8-dihydro-5H-acridine-2-carboxamide] showed a concentration giving a half-maximal response (EC50) of 98.5 nM.

On to `CC(C)[C@]1(F)CCc2nc3c(F)cc(C(=O)N[C@H](CCN4CCC5(CC4)COC5)c4ccc(-c5ccnnc5)nc4)cc3cc2C1` (racemic) [Example 50, rac-(7S)-4,7-difluoro-7-isopropyl-N-[rac-(1R)-3-(2-oxa-7-azaspiro[3.5]nonan-7-yl)-1-(6-pyridazin-4-yl-3-pyridyl)propyl]-6,8-dihydro-5H-acridine-2-carboxamide], for which the EC50 worked out at 240 nM.

For the compound `COCCCC1CCN(CC[C@@H](NC(=O)c2cc(F)c3nc4c(cc3c2)C[C@](F)(C(C)C)CC4)c2ccc(-c3ccnnc3)nc2)CC1` (racemic) [Example 51, rac-(7S)-4,7-difluoro-7-isopropyl-N-[rac-(1R)-3-[4-(3-methoxypropyl)-1-piperidyl]-1-(6-pyridazin-4-yl-3-pyridyl)propyl]-6,8-dihydro-5H-acridine-2-carboxamide], a half-maximal response (EC50) required 175 nM.

`CC(C)[C@]1(F)CCc2nc3c(F)cc(C(=O)N[C@H](CCN4CCC5(O)CCCCC5C4)c4ccc(-c5ccnnc5)nc4)cc3cc2C1` (mixture of isomers) [Example 52, rac-(7S)-4,7-difluoro-7-isopropyl-N-[rac-(1R)-3-(4a-hydroxy-1,3,4,5,6,7,8,8a-octahydroisoquinolin-2-yl)-1-(6-pyridazin-4-yl-3-pyridyl)propyl]-6,8-dihydro-5H-acridine-2-carboxamide]: the EC50 stood at 258 nM.

Compound `CC(C)[C@]1(F)CCc2nc3c(F)cc(C(=O)N[C@H](CCN4CCCCC4CCO)c4ccc(-c5ccnnc5)nc4)cc3cc2C1` (mixture of isomers) [Example 53, rac-(7S)-4,7-difluoro-7-isopropyl-N-[rac-(1R)-3-[2-(2-hydroxyethyl)-1-piperidyl]-1-(6-pyridazin-4-yl-3-pyridyl)propyl]-6,8-dihydro-5H-acridine-2-carboxamide] showed an EC50 of 98.1 nM.

`CC(C)[C@]1(F)CCc2nc3c(F)cc(C(=O)N[C@H](CCN4CCC(C(O)C5(CO)CC5)CC4)c4ccc(-c5ccnnc5)nc4)cc3cc2C1` (mixture of isomers) [Example 54, rac-(7S)-4,7-difluoro-7-isopropyl-N-[rac-(1R)-3-[4-[hydroxy-[1-(hydroxymethyl)cyclopropyl]methyl]-1-piperidyl]-1-(6-pyridazin-4-yl-3-pyridyl)propyl]-6,8-dihydro-5H-acridine-2-carboxamide] came in with an EC50 of 91.1 nM.

Turning to `CC(C)[C@]1(F)CCc2nc3c(F)cc(C(=O)N[C@H](CCN4CCC5(CCCO5)CC4)c4ccc(-c5ccnnc5)nc4)cc3cc2C1` (racemic) [Example 55, rac-(7S)-4,7-difluoro-7-isopropyl-N-[rac-(1R)-3-(1-oxa-8-azaspiro[4.5]decan-8-yl)-1-(6-pyridazin-4-yl-3-pyridyl)propyl]-6,8-dihydro-5H-acridine-2-carboxamide], the 50% effective concentration (EC50) is 344 nM.

Regarding `CC(C)C1CCN(CC[C@@H](NC(=O)c2cc(F)c3nc4c(cc3c2)C[C@](F)(C(C)C)CC4)c2ccc(-c3ccnnc3)nc2)CC1` (racemic) [Example 56, rac-(7S)-4,7-difluoro-7-isopropyl-N-[rac-(1R)-3-(4-isopropyl-1-piperidyl)-1-(6-pyridazin-4-yl-3-pyridyl)propyl]-6,8-dihydro-5H-acridine-2-carboxamide], it took 258 nM to reach a half-maximal effect (EC50). The EC50 values of the last two compounds are within 1.5-fold of each other.

On to `CC(C)[C@]1(F)CCc2nc3c(F)cc(C(=O)N[C@H](CCN4CCCOCC4)c4ccc(-c5ccnnc5)nc4)cc3cc2C1` (racemic) [Example 57, rac-(7S)-4,7-difluoro-7-isopropyl-N-[rac-(1R)-3-(1,4-oxazepan-4-yl)-1-(6-pyridazin-4-yl-3-pyridyl)propyl]-6,8-dihydro-5H-acridine-2-carboxamide], for which the EC50 was 142 nM.

For `CC(C)[C@]1(F)CCc2nc3c(F)cc(C(=O)N[C@H](CCN4CCCCC4CO)c4ccc(-c5ccnnc5)nc4)cc3cc2C1` (mixture of isomers) [Example 58, rac-(7S)-4,7-difluoro-7-isopropyl-N-[rac-(1R)-3-[2-(hydroxymethyl)-1-piperidyl]-1-(6-pyridazin-4-yl-3-pyridyl)propyl]-6,8-dihydro-5H-acridine-2-carboxamide], the midpoint of the response, the EC50, lay at 79.7 nM. Compared with the last compound, the EC50 is about 1.8-fold lower.

`CC(C)[C@]1(F)CCc2nc3c(F)cc(C(=O)N[C@H](CCN4CCCCC4CN(C)C)c4ccc(-c5ccnnc5)nc4)cc3cc2C1` (mixture of isomers) [Example 59, rac-(7S)-4,7-difluoro-7-isopropyl-N-[rac-(1R)-3-[2-[(dimethylamino)methyl]-1-piperidyl]-1-(6-pyridazin-4-yl-3-pyridyl)propyl]-6,8-dihydro-5H-acridine-2-carboxamide] returned an EC50 of 434 nM.
